Measurements from US20260158026A1, “METHODS OF TREATING CANCER AND COMPOSITIONS FOR THE SAME” (MARSAL THERAPEUTICS, INC., priority 2022, published 2026).
Like-named read-outs stand apart in the source and are kept apart here.

Key:
[1] = system: Breast Cancer (MDA-MB-231); experiment: IC50 measurement, cell viability assay; format: cell-based; conditions: Homo sapiens, MDA-MB-231, 96 h, after 4 days of treatment
Experimental: (§1) Negative (100% DMSO) and positive (10 mM Staurosporine in DMSO) controls were placed in columns 10 and 11, respectively. The plate was diluted with 180 μL growth media/well and 5 μL of the resulting compound solution was transferred in quadruplicate to the assay plate. For the assay plate, 3,000 cells/well were plated in a 384 well clear bottom μL plate and allowed to adhere for at least 3 hours. […] The plates were incubated for 1, 2, 3, or 4 days. ATP levels were measured after incubation. Based on the results of Example 1, Compound 1 was selected for further evaluation.

Colon Cancer (HT-29) = experiment: IC50 measurement, cell viability assay; format: cell-based; conditions: Homo sapiens, HT-29, 96 h, after 4 days of treatment
Experimental: as §1

Lung Cancer (H1299) = experiment: IC50 measurement, cell viability assay; format: cell-based; conditions: Homo sapiens, NCI-H1299, 96 h, after 4 days of treatment
Experimental: as §1

[2] = system: Pancreatic Cancer (MIA-PACA); experiment: IC50 measurement, cell viability assay; format: cell-based; conditions: Homo sapiens, MIA PaCa-2, 96 h, after 4 days of treatment
Experimental: as §1

Patient 1 GBM cells = experiment: IC50 measurement, cell viability assay; format: cell-based; conditions: Homo sapiens
Experimental: as §1

[3] = system: fibroblast cells from patient 1; experiment: IC50 measurement, cell viability assay; format: cell-based; conditions: Homo sapiens
Experimental: as §1, with “incubation.” for “incubation. Based on the results of Example 1, Compound 1 was selected for further evaluation.”

[4] = system: GBM cells isolated from an additional five patients; experiment: IC50 measurement, cell viability assay; format: cell-based; conditions: Homo sapiens, FIG. 2
Experimental: as §1, with “incubation.” for “incubation. Based on the results of Example 1, Compound 1 was selected for further evaluation.”
Serial dilutions in FIG. 2 show the effect of Compound 1 on GBM cells isolated from an additional five patients.

[5] = system: Patient-derived GBM cells; experiment: Long-term exposure assay; format: cell-based, human; conditions: 0.1 μM, incubated for 21 days, FIG. 3A
Experimental: Long-term Exposure Assay: Measurements for long-term assays were performed on days 4, 8, 14, and 21. 3,000 cells/well were plated in a 384 well plate (for day 4 assay), a 96 well plate (for day 8 assay), a 24 well plate (for day 14 assay), a 6 well plate (for day 21 assay), or a 10 cm plate (for day 30 assay) and allowed to adhere as above. Following this, media was exchanged to DMEM (without FBS+1× Penstrep) with either DMSO as control treatment or compound (at final concentration of 0.1 μM or 5 μM). Every four days, media was replaced with fresh DMEM (without FBS+1×Penstrep) comprising DMSO (control) or compound. At the end of days 4, 8, 14, and 21 cell viability assays were performed.
Patient-derived GBM cells were treated with Compound 1 at concentrations of 5 μM or 0.1 μM and incubated for 21 days. Fibroblasts were used as a control (FIG. 3B).

fibroblasts = experiment: Long-term exposure assay; format: cell-based, human; conditions: 0.1 μM, 21 days, FIG. 3B
Glioma cells = experiment: Cytotoxicity and apoptosis assays (ApoTox-Glo); format: cell-based, human
[6] = system: glioma cells from patient 1; experiment: Immunostaining with Caspase 3 antibody (apoptosis marker); format: cell-based, human; conditions: compared to positive control staurosporin, FIGS. 4C and 4D
[7] = system: glioma cells from patient 1; experiment: Immunostaining and quantification of Annexin V positive cells; format: cell-based, human
fibroblast control = experiment: as above; format: cell-based, human
GBM cells [8] = experiment: Mitochondrial membrane potential (JC1 staining); format: cell-based, human; conditions: CCCP positive control, DMSO negative control; 24, 48, 72 hrs, FIGS. 5A and 5B
Experimental: FIG. 5B is a bar graph of JC1 staining for mitochondrial depolarization in GMB cells treated with DMSO (negative control), CCCP (positive control), or Compound 1 (CMPD1) at 24 hrs, 48 hrs, and 72 hrs according to Example 6.
GBM cells were treated with Compound 1, carbonyl cyanide m-chlorophenyl hydrazine (CCCP; positive control), or DMSO (negative control) and the mitochondrial membrane potential (indicative of functional status of the GBM cells) was measured and analyzed.

GBM cells [9] = experiment: Mitochondria vacuolization by Transmission Electron Microscopy; format: cell-based, human; conditions: 2.5 μM, 5 μM, or 10 μM; 3, 6, 12, 24, and 48 hours
Experimental: Referring to FIGS. 6A and 6B, the GBM cells were analyzed via Transmission Electron (TEM) Microscopy after 3, 6, 12, 24, and 48 hours of incubation.

[10] = system: patient-derived glioma cells; experiment: siRNA knockdown of CRISPR-Cas9 hits followed by IC50 measurement; format: cell-based, human
Experimental: FIG. 7C is a graph of cell viability after treatment with Compound 1 for certain targets identified in FIG. 7B in patient-derived glioma cells followed by measurement of IC50 post-treatment with serial dilution of Compound 1 according to Example 8.
(§2) With reference to Step I in FIGS. 7A and 7B, whole genome CRISPR-Cas9 studies (B. Schmierer, Mol Systems Biol., 13, 945 (2017)) were carried out to identify potential targets that could explain the effect produced by Compound 1 on cancer cells. […] With reference to Step II in FIG. 7A and FIGS. 8A and 8B, after the CRISPR screening analysis was complete, the expression of identified hits were confirmed in GB cells as shown in FIG. 8A. The binding of Compound 1 to the identified hits was established via a pull-down assay using biotin labeled Compound 1 (FIG. 8B).

[11] = system: identified hits (BMPR1A, UTP23, ARHGAP33, ITSN1); experiment: Pull-down assay using biotin labeled Compound 1; format: binding, human; conditions: pull-down with biotin labeled Compound 1, FIG. 8B
Experimental: as §2

[12] = system: GBM cancer cell line xenograft; experiment: GBM xenograft stereotactically implanted into the brain of nude mice; format: in vivo; conditions: oral administration, versus mice not treated
Excerpt: A GBM cancer cell line was xenografted into 8-week old male nude mice and the tumor was allowed to develop for four weeks. The GBM cells were stereotactically implanted into the brain and allowed to grow for four weeks. After four weeks, treatment with Compound 1 via oral administration was started (Day 1). The mice were allowed to live until the ethical endpoint of the study was reached. Body weight and activity of animals were monitored continuously.

[13] = previous clinical trials; cited from earlier work
GBM cells [14] = experiment: Combination with FDA approved oncology drugs, cell viability; format: cell-based, human; conditions: combination with Compound 1, FIGS. 12A-C
Excerpt: The FDA approved oncology drugs included temozolomide (TMZ), ixabepilone, cladribine, enzalutamide, omacetaxine mepesuccinate, epothilones, erubulin, and latrunculin.

Compound `Fc1ccc(C(OCCN2CCN(CCCc3ccccc3)CC2)c2ccc(F)cc2)cc1` [Compound 1, vanoxerine] has an IC50 [1] of 2300 nM, an IC50 (Colon Cancer (HT-29)) of 2400 nM and an IC50 (Lung Cancer (H1299)) of 2100 nM. For the same compound, the IC50 [2] was 2400 nM, the IC50 (Patient 1 GBM cells; 96 h, after 4 days of treatment, cell viability assay, read-out: Mean IC50, Brain Cancer (Patient 1 GBM cells)) was 2200 nM and the IC50 (Patient 1 GBM cells; Glioma cell, 96 h, serial dilution, 4 days of incubation, FIG. 1B, read-out: IC50 for glioma cells from patient 1) was 4900 nM. It also gave an IC50 (Patient 1 GBM cells; various cell passages, FIG. 1C, range printed from about 300 nM to about 6.4 μM, read-out: IC50 for GBM cells, lower end of range over cell passages) of roughly 300 nM, an IC50 (Patient 1 GBM cells; various cell passages, FIG. 1C, range printed from about 300 nM to about 6.4 μM, read-out: IC50 for GBM cells, upper end of range over cell passages) of roughly 6400 nM and an IC50 ([3]; 96 h, serial dilution, 4 days of incubation, FIG. 1B, read-out: IC50 for fibroblast cells from patient 1) of 13800 nM. The IC50 ([3]; various cell passages, FIG. 1D, read-out: IC50 for the fibroblasts, range over cell passages) was 16000 to 41000 nM, the IC50 [4] was 4720 nM and the “Effect on GBM cells, long-term exposure” value [5] was “eliminated the GBM cells”. For the same compound, the “Cytotoxicity towards fibroblasts, long-term exposure” value (fibroblasts) was “without exhibiting cytotoxicity”, the “Apoptosis (ApoTox-Glo)” value (Glioma cells) was “apoptosis was not initiated” and the “Cytotoxicity (ApoTox-Glo)” value (Glioma cells) was “immense cytotoxicity”. For the same compound, the “Apoptosis positive cells, Caspase 3 immunostaining” value [6] was “did not produce apoptosis positive cells”, the “Apoptosis positive cells, Annexin V” value [7] was “do not produce more apoptosis positive cells” and the “Apoptosis positive cells, Annexin V” value (fibroblast control) was “do not produce more apoptosis positive cells”. The Mitochondrial membrane potential (GBM cells [8]) was “depolarization of mitochondria in a manner similar to CCCP”, the “Vacuolization of mitochondria (TEM)” value (GBM cells [9]) was “induced vacuolization of mitochondria” and the “IC50 after knockdown of ARHGAP33 versus controls” value ([10]; siRNA knockdown of ARHGAP33, FIG. 7C) was “higher IC50 values”. For the same compound, the “IC50 after knockdown of BMPR1A versus controls” value ([10]; siRNA knockdown of BMPR1A, FIG. 7C) was “higher IC50 values”, the “IC50 after knockdown of ITSN1 versus controls” value ([10]; siRNA knockdown of ITSN1, FIG. 7C) was “higher IC50 values” and the “Binding to the identified hits” value [11] was “established”. The Physical activity [12] was “increased physical activity”, the Tumor size ([12]; FIG. 9) was “reduction in tumor size” and the Bodyweight ([12]; FIG. 10) was “reduced loss in bodyweight”. The Life span ([12]; FIG. 11) was “increased life span” and the “Safety when administered to humans” value [13] was “establishing its safety”.
With `Nc1nc(Cl)nc2c1ncn2[C@H]1C[C@H](O)[C@@H](CO)O1` [cladribine] the “Cell viability, Compound 1 in the additional presence of the named drug” value (“Cell viability” for short) (GBM cells [14]) was “statistically significant decreases in cell viability”.
For `CNC(=O)c1ccc(N2C(=S)N(c3ccc(C#N)c(C(F)(F)F)c3)C(=O)C2(C)C)cc1F` [enzalutamide], the “Cell viability” value (GBM cells [14]) was “statistically significant decreases in cell viability”.
For `C/C(=C\c1csc(C)n1)[C@@H]1C[C@@H]2O[C@]2(C)CCC[C@H](C)[C@H](O)[C@@H](C)C(=O)C(C)(C)[C@@H](O)CC(=O)N1` [ixabepilone], the “Cell viability” value (GBM cells [14]) was “statistically significant decreases in cell viability”.
